{"source": "patent US12544395B2", "about": "“Combination compositions comprising a beta-lactamase inhibitor and uses thereof” (priority 2018, dated 2026)", "key": {"E. coli ESBL 5": {"system": "E. coli ESBL 5", "assay": "Broth microdilution MIC (strain enzymes: CTX-M15, TEM-1)", "type": "cell-based", "conditions": "with inhibitor at 4 μg/mL"}, "K. pneumoniae KP 3": {"system": "K. pneumoniae KP 3", "assay": "Broth microdilution MIC (strain enzymes: SHV-1, TEM-1)", "type": "cell-based"}, "E. coli 25922": {"system": "E. coli 25922", "assay": "Broth microdilution MIC (strain enzymes: None detected)", "type": "cell-based"}, "E. coli SI-M004": {"system": "E. coli SI-M004", "assay": "Broth microdilution MIC (strain enzymes: SHV-2, GES-12)", "type": "cell-based"}, "[1]": {"system": "E. coli expressing TEM-1+CTX-M-15, CTX-M-15, and KPC-2+SHV-12", "assay": "Murine ascending UTI model, three strains", "type": "in vivo, mice", "conditions": "added to ceftibuten at 3, 10, 30, 100, and 300 mg/kg, SC every 12 hours for 3 days"}, "K. oxytoca 176877": {"system": "K. oxytoca 176877", "assay": "Broth microdilution MIC (strain enzymes: SHV-105)", "type": "cell-based"}, "K. pneumoniae BAA 1705": {"system": "K. pneumoniae BAA 1705", "assay": "Broth microdilution MIC (strain KPC-producing)", "type": "cell-based", "conditions": "with inhibitor at 1 μg/mL"}}}
{"smiles": "CCC(=O)N[C@H]1Cc2cccc(C(=O)O)c2OB1O", "note": "[Compound 2, (R)-2-hydroxy-3-propionamido-3,4-dihydro-2H-benzo[e][1,2]oxaborinine-8-carboxylic acid]", "values": [{"measurement": "MIC of cefalexin (LEX)", "setting": "E. coli ESBL 5", "value": 2, "unit": "mg/L"}, {"measurement": "MIC of cefdinir (CDR)", "setting": "E. coli ESBL 5", "value": 2, "unit": "mg/L"}, {"measurement": "MIC of cefixime (CFM)", "setting": "E. coli ESBL 5", "value": 0.5, "unit": "mg/L"}, {"measurement": "MIC of ceftibuten (CTB)", "setting": "E. coli ESBL 5", "value": 0.125, "unit": "mg/L"}, {"measurement": "MIC of cefalexin (LEX)", "setting": "K. pneumoniae KP 3; with inhibitor at 1 μg/mL", "value": 0.5, "unit": "mg/L"}, {"measurement": "MIC of cefdinir (CDR)", "setting": "K. pneumoniae KP 3; with inhibitor at 1 μg/mL", "value": 0.5, "unit": "mg/L"}, {"measurement": "MIC of cefixime (CFM)", "setting": "K. pneumoniae KP 3; with inhibitor at 1 μg/mL", "value": 4, "unit": "mg/L"}, {"measurement": "MIC of ceftibuten (CTB)", "setting": "K. pneumoniae KP 3; with inhibitor at 1 μg/mL", "value": 0.25, "unit": "mg/L"}, {"measurement": "MIC of cefalexin (LEX)", "setting": "K. pneumoniae KP 3; with inhibitor at 2 μg/mL", "value": 0.25, "unit": "mg/L"}, {"measurement": "MIC of cefdinir (CDR)", "setting": "K. pneumoniae KP 3; with inhibitor at 2 μg/mL", "value": 0.25, "unit": "mg/L"}, {"measurement": "MIC of cefixime (CFM)", "setting": "K. pneumoniae KP 3; with inhibitor at 2 μg/mL", "value": 4, "unit": "mg/L"}, {"measurement": "MIC of ceftibuten (CTB)", "setting": "K. pneumoniae KP 3; with inhibitor at 2 μg/mL", "value": 0.25, "unit": "mg/L"}, {"measurement": "MIC of cefalexin (LEX)", "setting": "K. pneumoniae KP 3; with inhibitor at 4 μg/mL", "value": 0.5, "unit": "mg/L"}, {"measurement": "MIC of cefdinir (CDR)", "setting": "K. pneumoniae KP 3; with inhibitor at 4 μg/mL", "value": 0.5, "unit": "mg/L"}, {"measurement": "MIC of cefixime (CFM)", "setting": "K. pneumoniae KP 3; with inhibitor at 4 μg/mL", "value": 2, "unit": "mg/L"}, {"measurement": "MIC of ceftibuten (CTB)", "setting": "K. pneumoniae KP 3; with inhibitor at 4 μg/mL", "value": 0.125, "unit": "mg/L"}, {"measurement": "MIC of cefalexin (LEX)", "setting": "E. coli 25922; with inhibitor at 1 μg/mL", "value": 0.125, "unit": "mg/L"}, {"measurement": "MIC of cefdinir (CDR)", "setting": "E. coli 25922; with inhibitor at 1 μg/mL", "value": 0.125, "unit": "mg/L"}, {"measurement": "MIC of cefixime (CFM)", "setting": "E. coli 25922; with inhibitor at 1 μg/mL", "value": 0.125, "unit": "mg/L"}, {"measurement": "MIC of ceftibuten (CTB)", "setting": "E. coli 25922; with inhibitor at 1 μg/mL", "value": 0.125, "unit": "mg/L"}, {"measurement": "MIC of cefalexin (LEX)", "setting": "E. coli 25922; with inhibitor at 2 μg/mL", "value": 0.125, "unit": "mg/L"}, {"measurement": "MIC of cefdinir (CDR)", "setting": "E. coli 25922; with inhibitor at 2 μg/mL", "value": 0.125, "unit": "mg/L"}, {"measurement": "MIC of cefixime (CFM)", "setting": "E. coli 25922; with inhibitor at 2 μg/mL", "value": 0.06, "unit": "mg/L"}, {"measurement": "MIC of ceftibuten (CTB)", "setting": "E. coli 25922; with inhibitor at 2 μg/mL", "value": 0.06, "unit": "mg/L"}, {"measurement": "MIC of cefalexin (LEX)", "setting": "E. coli 25922; with inhibitor at 4 μg/mL", "value": 0.125, "unit": "mg/L"}, {"measurement": "MIC of cefdinir (CDR)", "setting": "E. coli 25922; with inhibitor at 4 μg/mL", "value": 0.125, "unit": "mg/L"}, {"measurement": "MIC of cefixime (CFM)", "setting": "E. coli 25922; with inhibitor at 4 μg/mL", "value": 0.06, "unit": "mg/L"}, {"measurement": "MIC of ceftibuten (CTB)", "setting": "E. coli 25922; with inhibitor at 4 μg/mL", "value": 0.06, "unit": "mg/L"}, {"measurement": "MIC of cefalexin (LEX)", "setting": "E. coli SI-M004; with inhibitor at 1 μg/mL", "value": 0.5, "unit": "mg/L"}, {"measurement": "MIC of cefdinir (CDR)", "setting": "E. coli SI-M004; with inhibitor at 1 μg/mL", "value": 0.5, "unit": "mg/L"}, {"measurement": "MIC of cefixime (CFM)", "setting": "E. coli SI-M004; with inhibitor at 1 μg/mL", "value": 4, "unit": "mg/L"}, {"measurement": "MIC of ceftibuten (CTB)", "setting": "E. coli SI-M004; with inhibitor at 1 μg/mL", "value": 0.25, "unit": "mg/L"}, {"measurement": "MIC of cefalexin (LEX)", "setting": "E. coli SI-M004; with inhibitor at 2 μg/mL", "value": 0.5, "unit": "mg/L"}, {"measurement": "MIC of cefdinir (CDR)", "setting": "E. coli SI-M004; with inhibitor at 2 μg/mL", "value": 0.5, "unit": "mg/L"}, {"measurement": "MIC of cefixime (CFM)", "setting": "E. coli SI-M004; with inhibitor at 2 μg/mL", "value": 4, "unit": "mg/L"}, {"measurement": "MIC of ceftibuten (CTB)", "setting": "E. coli SI-M004; with inhibitor at 2 μg/mL", "value": 0.125, "unit": "mg/L"}, {"measurement": "MIC of cefalexin (LEX)", "setting": "E. coli SI-M004; with inhibitor at 4 μg/mL", "value": 0.5, "unit": "mg/L"}, {"measurement": "MIC of cefdinir (CDR)", "setting": "E. coli SI-M004; with inhibitor at 4 μg/mL", "value": 0.5, "unit": "mg/L"}, {"measurement": "MIC of cefixime (CFM)", "setting": "E. coli SI-M004; with inhibitor at 4 μg/mL", "value": 1, "unit": "mg/L"}, {"measurement": "MIC of ceftibuten (CTB)", "setting": "E. coli SI-M004; with inhibitor at 4 μg/mL", "value": 0.125, "unit": "mg/L"}, {"measurement": "bacterial titers lower than ceftibuten alone, bladders", "setting": "[1]", "value": 3.2, "unit": "log10 CFU/g"}, {"measurement": "bacterial titers lower than ceftibuten alone, urine", "setting": "[1]", "value": "up to 4 log10 CFU/mL"}, {"measurement": "MIC of cefalexin (LEX)", "setting": "K. oxytoca 176877; with inhibitor at 1 μg/mL", "value": 2, "unit": "mg/L"}, {"measurement": "MIC of cefdinir (CDR)", "setting": "K. oxytoca 176877; with inhibitor at 1 μg/mL", "value": 2, "unit": "mg/L"}, {"measurement": "MIC of cefixime (CFM)", "setting": "K. oxytoca 176877; with inhibitor at 1 μg/mL", "value": 1, "unit": "mg/L"}, {"measurement": "MIC of ceftibuten (CTB)", "setting": "K. oxytoca 176877; with inhibitor at 1 μg/mL", "value": 0.5, "unit": "mg/L"}, {"measurement": "MIC of cefalexin (LEX)", "setting": "K. oxytoca 176877; with inhibitor at 2 μg/mL", "value": 2, "unit": "mg/L"}, {"measurement": "MIC of cefdinir (CDR)", "setting": "K. oxytoca 176877; with inhibitor at 2 μg/mL", "value": 2, "unit": "mg/L"}, {"measurement": "MIC of cefixime (CFM)", "setting": "K. oxytoca 176877; with inhibitor at 2 μg/mL", "value": 0.5, "unit": "mg/L"}, {"measurement": "MIC of ceftibuten (CTB)", "setting": "K. oxytoca 176877; with inhibitor at 2 μg/mL", "value": 0.125, "unit": "mg/L"}, {"measurement": "MIC of cefalexin (LEX)", "setting": "K. oxytoca 176877; with inhibitor at 4 μg/mL", "value": 1, "unit": "mg/L"}, {"measurement": "MIC of cefdinir (CDR)", "setting": "K. oxytoca 176877; with inhibitor at 4 μg/mL", "value": 1, "unit": "mg/L"}, {"measurement": "MIC of cefixime (CFM)", "setting": "K. oxytoca 176877; with inhibitor at 4 μg/mL", "value": 0.5, "unit": "mg/L"}, {"measurement": "MIC of ceftibuten (CTB)", "setting": "K. oxytoca 176877; with inhibitor at 4 μg/mL", "value": 0.25, "unit": "mg/L"}, {"measurement": "MIC of cefalexin (LEX)", "setting": "K. pneumoniae BAA 1705", "value": 4, "unit": "mg/L"}, {"measurement": "MIC of cefdinir (CDR)", "setting": "K. pneumoniae BAA 1705", "value": 4, "unit": "mg/L"}, {"measurement": "MIC of cefixime (CFM)", "setting": "K. pneumoniae BAA 1705", "value": 0.5, "unit": "mg/L"}, {"measurement": "MIC of ceftibuten (CTB)", "setting": "K. pneumoniae BAA 1705", "value": 0.5, "unit": "mg/L"}]}
